Tests used:
[1] = tested on: TRZAWR (Wheat, Winter, cv Riband); experiment: Preemergence herbicidal evaluation; type: in vivo, Triticum aestivum; settings: preemergence, rated 4-5 weeks after treatment, 0-9 scale
In short: (§1)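 Visual 0-9 rating vs control (stand, vigor, malformation, size, chlorosis, overall appearance), scored 4-5 wk after spraying. Seeded soil cups were treated preemergence with compound in aqueous acetone, ~0.0156-0.500 kg/ha equivalent.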

CASOB (Sicklepod) = experiment: Preemergence herbicidal evaluation; type: in vivo, Cassia obtusifolia; settings: preemergence, rated 4-5 weeks after treatment, 0-9 scale
In short: as §1

ZEAMX (Corn, Field) [2] = experiment: Preemergence herbicidal evaluation; type: in vivo, Zea mays; settings: preemergence, rated 4-5 weeks after treatment, 0-9 scale
In short: as §1

[3] = tested on: IPOHE (Morningglory, Ivyleaf); experiment: Preemergence herbicidal evaluation; type: in vivo, Ipomoea hederacea; settings: preemergence, rated 4-5 weeks after treatment, 0-9 scale
In short: as §1

[4] = tested on: CHEAL (Lambsquarters, Common); experiment: Preemergence herbicidal evaluation; type: in vivo, Chenopodium album; settings: preemergence, rated 4-5 weeks after treatment, 0-9 scale
In short: as §1

ZEAMX (Corn, Field) [5] = experiment: Postemergence herbicidal evaluation; type: in vivo, Zea mays; settings: postemergence
In short: (§2)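 Two-week seedlings sprayed postemergence at 40 psi; formulation: 1:1 acetone/water, 0.5% TWEEN 20; application ≈0.0156–0.500 kg/ha. Greenhouse grow-out, then 0–9 visual scoring at 4–5 weeks.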

ABUTH (Velvetleaf) [6] = experiment: Preemergence herbicidal evaluation; type: in vivo, Abutilon theophrasti; settings: preemergence, rated 4-5 weeks after treatment, 0-9 scale
In short: as §1

CYPIR (Rice Flatsedge) = experiment: Postemergence weed control under flooded paddy conditions; type: in vivo, Cyperus iria; settings: postemergence weeds, rated 3 to 4 weeks after treatment
In short: (§3)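 Herbicidal effect is judged by eye on a 0–9 scale versus control, 3–4 weeks after dosing. Dosing is into flood water kept 1.5–3 cm over the soil, at about 0.0313–0.500 kg/ha in aqueous/acetone 50/50 v/v, on 3–5 cm weeds and 1.5–2.5-leaf rice seedlings.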

CYPSE (Flatsedge) = experiment: as above; type: in vivo, Cyperus serotinus; settings: postemergence weeds, rated 3 to 4 weeks after treatment
In short: as §3

[7] = tested on: IPOHE (Morningglory, Ivyleaf); experiment: Postemergence herbicidal evaluation; type: in vivo, Ipomoea hederacea; settings: postemergence
In short: as §2

ECHCG (Barnyardgrass) [8] = experiment: Postemergence herbicidal evaluation; type: in vivo, Echinochloa crus-galli; settings: postemergence
In short: as §2

SETVI (Foxtail, Green) = experiment: Postemergence herbicidal evaluation; type: in vivo, Setaria viridis; settings: postemergence
In short: as §2

ORYSAT (Rice, Tebonnet) = experiment: Postemergence herbicidal evaluation; type: in vivo, Oryza sativa, (L.) Tebonnet; settings: postemergence
In short: as §2

ECHCG (Barnyardgrass) [9] = experiment: Preemergence herbicidal evaluation; type: in vivo, Echinochloa crus-galli; settings: preemergence, rated 4-5 weeks after treatment, 0-9 scale
In short: as §1

[10] = tested on: CHEAL (Lambsquarters, Common); experiment: Postemergence herbicidal evaluation; type: in vivo, Chenopodium album; settings: postemergence
In short: as §2

ABUTH (Velvetleaf) [11] = experiment: Postemergence herbicidal evaluation; type: in vivo, Abutilon theophrasti; settings: postemergence
In short: as §2

[12] = tested on: GLXMAW (Soybean, Williams); experiment: Preemergence herbicidal evaluation; type: in vivo, Glycine max, (L.) Merr. cv Williams; settings: preemergence, rated 4-5 weeks after treatment, 0-9 scale
In short: as §1

C=CCN1C(=O)C(CC(=O)NOC)SC1=Nc1cc(-n2c(=O)cc(C(F)(F)F)n(C)c2=O)c(F)cc1Cl (stereo not drawn) [Compound 85]
2.5: ORYSAT herbicidal rating (ORYSAT (Rice, Tebonnet); rate 0.1250 kg/ha)
8.5: ZEAMX herbicidal rating (ZEAMX (Corn, Field) [5]; rate 0.1250 kg/ha)
1.5: ORYSAT herbicidal rating (ORYSAT (Rice, Tebonnet); rate 0.0625 kg/ha)
3.0: TRZAWR rating ([1]; 0.1250 kg/ha) | CHEAL rating ([4]; 0.0156 kg/ha) | Herbicidal rating CYPIR (CYPIR (Rice Flatsedge); Rate 0.0313 kg/ha)
0.0: TRZAWR rating ([1]; 0.0156 kg/ha) | TRZAWR rating ([1]; 0.0313 kg/ha) | TRZAWR rating ([1]; 0.0625 kg/ha) | CASOB rating (CASOB (Sicklepod); 0.0156 kg/ha) | CASOB rating (CASOB (Sicklepod); 0.0313 kg/ha) | CASOB rating (CASOB (Sicklepod); 0.0625 kg/ha) | CASOB rating (CASOB (Sicklepod); 0.1250 kg/ha) | CASOB rating (CASOB (Sicklepod); 0.2500 kg/ha) | ZEAMX rating (ZEAMX (Corn, Field) [2]; 0.0156 kg/ha) | ZEAMX rating (ZEAMX (Corn, Field) [2]; 0.0313 kg/ha) | ZEAMX rating (ZEAMX (Corn, Field) [2]; 0.0625 kg/ha) | IPOHE rating ([3]; 0.0156 kg/ha) | IPOHE rating ([3]; 0.0313 kg/ha) | ABUTH rating (ABUTH (Velvetleaf) [6]; 0.0156 kg/ha) | Herbicidal rating CYPSE (CYPSE (Flatsedge); Rate 0.0313 kg/ha) | ECHCG herbicidal rating (ECHCG (Barnyardgrass) [8]; rate 0.0156 kg/ha) | ECHCG herbicidal rating (ECHCG (Barnyardgrass) [8]; rate 0.0313 kg/ha) | ECHCG herbicidal rating (ECHCG (Barnyardgrass) [8]; rate 0.0625 kg/ha) | SETVI herbicidal rating (SETVI (Foxtail, Green); rate 0.0156 kg/ha) | SETVI herbicidal rating (SETVI (Foxtail, Green); rate 0.0313 kg/ha) | ECHCG rating (ECHCG (Barnyardgrass) [9]; 0.0156 kg/ha) | ECHCG rating (ECHCG (Barnyardgrass) [9]; 0.0313 kg/ha) | ECHCG rating (ECHCG (Barnyardgrass) [9]; 0.0625 kg/ha) | ECHCG rating (ECHCG (Barnyardgrass) [9]; 0.1250 kg/ha) | ECHCG rating (ECHCG (Barnyardgrass) [9]; 0.2500 kg/ha) | GLXMAW rating ([12]; 0.0156 kg/ha) | GLXMAW rating ([12]; 0.0313 kg/ha) | GLXMAW rating ([12]; 0.0625 kg/ha)
1.0: ORYSAT herbicidal rating (ORYSAT (Rice, Tebonnet); rate 0.0156 kg/ha) | ORYSAT herbicidal rating (ORYSAT (Rice, Tebonnet); rate 0.0313 kg/ha)
4.0: ZEAMX herbicidal rating (ZEAMX (Corn, Field) [5]; rate 0.0156 kg/ha) | ECHCG rating (ECHCG (Barnyardgrass) [9]; 0.5000 kg/ha) | CHEAL herbicidal rating ([10]; rate 0.0313 kg/ha) | CHEAL herbicidal rating ([10]; rate 0.0625 kg/ha)
2.0: ZEAMX rating (ZEAMX (Corn, Field) [2]; 0.1250 kg/ha) | IPOHE rating ([3]; 0.0625 kg/ha) | Herbicidal rating CYPSE (CYPSE (Flatsedge); Rate 0.0625 kg/ha) | Herbicidal rating CYPSE (CYPSE (Flatsedge); Rate 0.1250 kg/ha) | CHEAL herbicidal rating ([10]; rate 0.0156 kg/ha) | GLXMAW rating ([12]; 0.1250 kg/ha) | GLXMAW rating ([12]; 0.2500 kg/ha)
5.0: TRZAWR rating ([1]; 0.2500 kg/ha) | ZEAMX rating (ZEAMX (Corn, Field) [2]; 0.2500 kg/ha) | IPOHE rating ([3]; 0.1250 kg/ha)
9.0: CASOB rating (CASOB (Sicklepod); 0.5000 kg/ha) | ZEAMX rating (ZEAMX (Corn, Field) [2]; 0.5000 kg/ha) | IPOHE rating ([3]; 0.5000 kg/ha) | CHEAL rating ([4]; 0.0313 kg/ha) | CHEAL rating ([4]; 0.0625 kg/ha) | CHEAL rating ([4]; 0.1250 kg/ha) | CHEAL rating ([4]; 0.2500 kg/ha) | CHEAL rating ([4]; 0.5000 kg/ha) | ABUTH rating (ABUTH (Velvetleaf) [6]; 0.0313 kg/ha) | ABUTH rating (ABUTH (Velvetleaf) [6]; 0.0625 kg/ha) | ABUTH rating (ABUTH (Velvetleaf) [6]; 0.1250 kg/ha) | ABUTH rating (ABUTH (Velvetleaf) [6]; 0.2500 kg/ha) | ABUTH rating (ABUTH (Velvetleaf) [6]; 0.5000 kg/ha) | Herbicidal rating CYPIR (CYPIR (Rice Flatsedge); Rate 0.1250 kg/ha) | Herbicidal rating CYPIR (CYPIR (Rice Flatsedge); Rate 0.2500 kg/ha) | Herbicidal rating CYPSE (CYPSE (Flatsedge); Rate 0.2500 kg/ha) | IPOHE herbicidal rating ([7]; rate 0.0156 kg/ha) | IPOHE herbicidal rating ([7]; rate 0.0313 kg/ha) | IPOHE herbicidal rating ([7]; rate 0.0625 kg/ha) | IPOHE herbicidal rating ([7]; rate 0.1250 kg/ha) | ECHCG herbicidal rating (ECHCG (Barnyardgrass) [8]; rate 0.1250 kg/ha) | SETVI herbicidal rating (SETVI (Foxtail, Green); rate 0.0625 kg/ha) | SETVI herbicidal rating (SETVI (Foxtail, Green); rate 0.1250 kg/ha) | CHEAL herbicidal rating ([10]; rate 0.1250 kg/ha) | ABUTH herbicidal rating (ABUTH (Velvetleaf) [11]; rate 0.0156 kg/ha) | ABUTH herbicidal rating (ABUTH (Velvetleaf) [11]; rate 0.0313 kg/ha) | ABUTH herbicidal rating (ABUTH (Velvetleaf) [11]; rate 0.0625 kg/ha) | ABUTH herbicidal rating (ABUTH (Velvetleaf) [11]; rate 0.1250 kg/ha) | GLXMAW rating ([12]; 0.5000 kg/ha)
7.5: ZEAMX herbicidal rating (ZEAMX (Corn, Field) [5]; rate 0.0625 kg/ha)
6.5: ZEAMX herbicidal rating (ZEAMX (Corn, Field) [5]; rate 0.0313 kg/ha)
8.0: TRZAWR rating ([1]; 0.5000 kg/ha)
7.0: IPOHE rating ([3]; 0.2500 kg/ha) | Herbicidal rating CYPIR (CYPIR (Rice Flatsedge); Rate 0.0625 kg/ha)

Source: patent US20020137929A1, “1 - (3-heterocyclylphenyl) isothiourea, -isourea, -guanidine and -amidine herbicidal agents” (Intellectual Property Department, BASF Aktiengesellschaft, priority 1998, published 2002)
